This passage reports IC50 results from patent US20230174521A1, “NOVEL DIACYLGLYCERIDE O-ACYLTRANSFERASE 2 INHIBITORS” (Merck Sharp & Dohme LLC, priority 2020, published 2023).

Bounds are passed on as bounds.

In general, IC50 refers to the concentration at which inhibition is half-maximal. Low readings indicate higher potency, high ones lower potency.

In the assay the target is T1, human DGAT2 (hDGAT2) (Homo sapiens, UniProt Q96PD7).
T1 construct: made in house; host or cells: Sf-9 insect cells (baculovirus infection); membrane fraction
T1 sequence (Q96PD7 1-388): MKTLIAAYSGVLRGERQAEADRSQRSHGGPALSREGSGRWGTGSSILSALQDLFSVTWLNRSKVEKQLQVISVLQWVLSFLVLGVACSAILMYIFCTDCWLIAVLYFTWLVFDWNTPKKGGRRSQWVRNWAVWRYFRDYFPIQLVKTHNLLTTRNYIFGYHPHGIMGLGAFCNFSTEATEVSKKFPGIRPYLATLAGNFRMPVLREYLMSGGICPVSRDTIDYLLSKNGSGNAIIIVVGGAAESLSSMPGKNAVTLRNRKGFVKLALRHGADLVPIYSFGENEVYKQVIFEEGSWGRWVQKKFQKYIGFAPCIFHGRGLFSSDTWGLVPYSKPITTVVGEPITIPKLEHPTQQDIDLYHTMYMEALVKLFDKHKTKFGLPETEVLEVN
In words: DGAT2 enzymatic activity assay (LC/MS/MS detection of 13C18-triolein, Sf-9 membrane prep). The format is biochemical. Conditions: hDGAT2 Sf-9 membrane, 25 μM diolein, 5 μM 13C oleoyl-CoA, rt. Here is the method: Sf-9 insect cells were maintained in Grace's insect cell culture medium with 10% heated-inactivated fetal bovine serum, 1% Pluronic F-68 and 0.14 μg/ml Kanamycine sulfate at 27° C. in a shaker incubator. After infection with untagged baculovirus expressing human DGAT2 (hDGAT2) at multiplicity of infection (MOI) 3 for 48 hours, cells were harvested. Cell pellets were suspended in buffer containing 10 mM Tris-HCl pH 7.5, 1 mM EDTA, 250 mM sucrose and Complete Protease Inhibitor Cocktail (Sigma Aldrich), and sonicated on ice. Cell debris were removed by centrifugation at 2000×g for 15 minutes. Membrane fractions were isolated by ultracentrifugation (100,000×g), resuspended in the same buffer, and frozen (−80° C.) for later use. The protein concentration was determined with the Pierce™ BCA Protein Assay Kit (Thermo Fisher Scientific). Expression of protein levels was analyzed by immunoblotting with rabbit anti-DGAT2 antibody (Abcam, ab102831) and donkey anti-rabbit IgG H&L Alexa Fluor® 647 (Abcam, ab150075) followed by detection using Typhoon FLA9000 (GE Healthcare).
LC/MS/MS analyses were performed using Thermal Fisher's LX4-TSQ Vantage system. This system consists of an Agilent binary high-performance liquid chromatography (HPLC) pumps and a TSQ Vantage triple quadrupole MS/MS instrument. For each sample, 2 μL samples from the top organic layer of in-plate liquid-liquid extraction were injected onto a Thermo Betabasic C4 column (2.1 mm×20 mm, 5 μm particle size). The samples were then eluted using the following conditions; mobile phase: Isopropanol: acetonitrile/10 mM ammonium formate=50/35/15 (v/v/v), flow rate: 0.8 mL/min, temperature: 25° C. Data was acquired in positive mode using a heated electrospray ionization (HESI) interface. The operational parameters for the TSQ Vantage MS/MS instrument were a spray voltage of 3000 V, capillary temperature of 280° C., vaporizer temperature 400° C., sheath gas 45 arbitrary unit, Aux gas 10 arbitrary units, S-lens 165 and collision gas 1.0 mTorr. […] (SRM) chromatograms of ^13C18-triolein (Q1: 920.8>Q3:621.3) and internal standard ^13C21-triolein (Q1: 923.8>Q3:617.3) were collected for 33 sec. The peak area was integrated by Xcalibur Quan software. The ratio between the ^13C18triolein generated in the reaction and spiked in internal standard ^13C21-triolein was used to generate percentage inhibition and IC50 values. Compound percentage inhibition was calculated by the following formula: Inhibition %=1−[(compound response−low control)/(high control−low control)]×100%. Potent compounds were titrated and IC50 were calculated by 4 parameter sigmoidal curve fitting formula.
DGAT2 activity was determined by measuring the amount of enzymatic product ^13C18-triolein (^13C-1,2,3-Tri(cis-9-octadecenoyl)glycerol) using the membrane prep mentioned above. The assay was carried out in ABgene 384-well assay plates in a final volume of 25 μL at rt. The assay mixture contained the following: assay buffer (100 mM Tris.Cl, pH 7.0, 20 mM MgCl2, 5% ethanol), 25 μM of diolein, 5 μM of ^13C oleoyl-CoA and 8 ng/μL of DGAT2 membrane.
Compound `CC1(NC(=O)c2cnc3c(c2)c(C(C)(C)O)nn3-c2cc(OCC(F)F)ncc2F)CCS(=O)(=O)CC1` [Example 44, 1-(2-(2,2-difluoroethoxy)-5-fluoropyridin-4-yl)-3-(2-hydroxypropan-2-yl)-N-(4-methyl-1,1-dioxidotetrahydro-2H-thiopyran-4-yl)-1H-pyrazolo[3,4-b]pyridine-5-carboxamide] registered a half-inhibitory concentration (IC50) of 2.7 nM.

Compound `CC1(NC(=O)c2cnc3c(c2)c(C(C)(C)O)nn3-c2cc(OCC(F)F)ncc2F)CS(=O)(=O)C1` [Example 45, 1-(2-(2,2-difluoroethoxy)-5-fluoropyridin-4-yl)-3-(2-hydroxypropan-2-yl)-N-(3-methyl-1,1-dioxidothietan-3-yl)-1H-pyrazolo[3,4-b]pyridine-5-carboxamide] returned an IC50 of 13 nM.

Regarding `CC1(NC(=O)c2cnc3c(c2)c(C(C)(C)O)nn3-c2cc(OC(F)F)ncc2F)CS(=O)(=O)C1` [Example 46, l-(2-(difluoromethoxy)-5-fluoropyridin-4-yl)-3-(2-hydroxypropan-2-yl)-N-(3-methyl-1,1-dioxidothietan-3-yl)-1H-pyrazolo[3,4-b]pyridine-5-carboxamide], the midpoint of inhibition, the IC50, lay at 31 nM.

On to `CC1(NC(=O)c2cnc3c(c2)c(C(C)(C)O)nn3-c2cncc(OC(F)F)c2)CS(=O)(=O)C1` [Example 47, 1-(5-(difluoromethoxy)pyridin-3-yl)-3-(2-hydroxypropan-2-yl)-N-(3-methyl-1,1-dioxidothietan-3-yl)-1H-pyrazolo[3,4-b]pyridine-5-carboxamide], for which the IC50 is 91 nM.

In the case of `C[C@]1(NC(=O)c2ccc3c(c2)c(N2CCOCC2)nn3-c2cccc(OC(F)F)c2)CCS(=O)(=O)C1` [Example 48, (S)-1-[3-(difluoromethoxy)phenyl]-N-(3-methyl-1,1-dioxo-thiolan-3-yl)-3-morpholino-indazole-5-carboxamide], the IC50 was 375 nM.

With `C[C@]1(NC(=O)c2ccc3c(c2)c(N2CCC[C@H]2C(=O)O)nn3-c2cccc(OC(F)F)c2)CCS(=O)(=O)C1` [Example 49, (2S)-1-[1-[3-(difluoromethoxy)phenyl]-5-[[(3S)-3-methyl-1,1-dioxo-thiolan-3-yl]carbamoyl]indazol-3-yl]pyrrolidine-2-carboxylic acid], inhibition was half-maximal at 351 nM (IC50).

On to `CC(C)Nc1nn(-c2cccc(OC(F)F)c2)c2ccc(C(=O)NC3(C)CS(=O)(=O)C3)cc12` [Example 50], for which half-maximal inhibition (IC50) required 41 nM.

As to `CC1(NC(=O)c2ccc3c(c2)c(NS(C)(=O)=O)nn3-c2cccc(OC(F)F)c2)CS(=O)(=O)C1` [Example 51], the IC50 was > 10000 nM.

Take `COc1ccc(-n2nc(NCCc3ccccc3)c3cc(C(=O)NCCCN(C)C)ccc32)cc1` [Example 52, N-(3-(dimethylamino)propyl)-1-(4-methoxyphenyl)-3-(phenethylamino)-1H-indazole-5-carboxamide]: 4320 nM corresponded to half-maximal inhibition (IC50).

Turning to `C[C@]1(NC(=O)c2ccc3c(c2)c(S(C)(=O)=O)nn3-c2cccc(OC(F)F)c2)CCS(=O)(=O)C1` [Example 53, (S)-1-(3-(difluoromethoxy)phenyl)-N-(3-methyl-1,1-dioxidotetrahydrothiophen-3-yl)-3-(methylsulfonyl)-1H-indazole-5-carboxamide], the IC50 is 543 nM.

As for `C[C@]1(NC(=O)c2ccc3c(c2)c(Oc2ccc(F)cc2)nn3-c2cccc(OC(F)F)c2)CCS(=O)(=O)C1` [Example 54, (S)-1-(3-(difluoromethoxy)phenyl)-3-(4-fluorophenoxy)-N-(3-methyl-1,1-dioxidotetrahydrothiophen-3-yl)-1H-indazole-5-carboxamide], the IC50 turned out to be 0.3 nM.

As to `CC(C)Oc1nn(-c2cc(OC(F)F)ccc2F)c2ncc(C(=O)NC3(C)CS(=O)(=O)C3)cc12` [Example 55, 1-(5-(difluoromethoxy)-2-fluorophenyl)-3-isopropoxy-N-(3-methyl-1,1-dioxidothietan-3-yl)-1H-pyrazolo[3,4-b]pyridine-5-carboxamide], inhibition was half-maximal at 93 nM (IC50).

Turning to `CC1(NC(=O)c2ccc3c(c2)c(O)nn3-c2cccc(OC(F)F)c2)CS(=O)(=O)C1` [Example 56], the IC50 was > 10000 nM.
